Test results reported in US6737383B1, “Herbicidal oxadiazolidines” (priority 1999, dated 2004).

Legend:
[1] = system: wheat; assay: Test B pre/postemergence wheat; assay type: in vivo, Triticum aestivum
How it was run: (§1)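 Test chemicals in a non-phytotoxic solvent mixture with surfactant were sprayed preemergence onto planted seeds and postemergence onto plants 2 to 18 cm tall (1- to 4-leaf stage). After twelve to sixteen days in a greenhouse, injury was visually rated against untreated controls from 0 (no effect) to 10 (complete control).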

[2] = system: bedstraw; assay: Test B pre/postemergence bedstraw; assay type: in vivo, Galium aparine
How it was run: as §1

[3] = system: velvetleaf; assay: Test B pre/postemergence velvetleaf; assay type: in vivo, Abutilon theophrasti
How it was run: as §1

[4] = system: blackgrass; assay: Test B pre/postemergence blackgrass; assay type: in vivo, Alopecurus myosuroides
How it was run: as §1

[5] = Postemergence, Rate 62 g/ha, scale 0 to 10, 0 is no effect, 10 is complete control
[6] = Postemergence, Rate 125 g/ha, scale of 0 to 10 where 0 is no effect and 10 is complete control
[7] = Postemergence, Rate 250 g/ha, scale of 0 to 10, 0 is no effect, 10 is complete control
[8] = Postemergence, Rate 500 g/ha, scale of 0 to 10 where 0 is no effect and 10 is complete control
[9] = Preemergence, Rate 62 g/ha, scale 0 to 10 (0 no effect, 10 complete control)
[10] = Preemergence, Rate 125 g/ha, scale of 0 to 10 where 0 is no effect and 10 is complete control
[11] = Preemergence, Rate 500 g/ha, scale of 0 to 10 where 0 is no effect and 10 is complete control
[12] = Preemergence, Rate 62 g/ha, scale of 0 to 10 where 0 is no effect and 10 is complete control
[13] = Preemergence, Rate 250 g/ha, scale of 0 to 10 where 0 is no effect and 10 is complete control
[14] = Rate 62 g/ha, Postemergence, scale 0 to 10 (0 no effect, 10 complete control)
[15] = Rate 125 g/ha, Postemergence, scale of 0 to 10 where 0 is no effect and 10 is complete control
[16] = Rate 250 g/ha, Postemergence, scale of 0 to 10 where 0 is no effect and 10 is complete control
[17] = Rate 500 g/ha, Postemergence, scale 0 to 10, 0 no effect, 10 complete control
[18] = Postemergence, Rate 125 g/ha, scale 0 to 10, 0 is no effect, 10 is complete control
[19] = Postemergence, Rate 250 g/ha, scale 0 to 10, 0 is no effect, 10 is complete control
[20] = Rate 62 g/ha, Postemergence, scale of 0 to 10 where 0 is no effect and 10 is complete control
[21] = Postemergence, Rate 62 g/ha, scale of 0 to 10, 0 is no effect, 10 is complete control
[22] = Postemergence, Rate 500 g/ha, scale 0 to 10, 0 is no effect, 10 is complete control
[23] = Preemergence, Rate 125 g/ha, scale 0 to 10, 0 is no effect, 10 is complete control
[24] = Postemergence, Rate 250 g/ha, scale 0 to 10, 0 no effect, 10 complete control
[25] = Preemergence, Rate 125 g/ha, scale 0 to 10 (0 no effect, 10 complete control)
[26] = Preemergence, Rate 500 g/ha, scale 0 (no effect) to 10 (complete control)
[27] = Rate 125 g/ha, Postemergence, scale 0 to 10, 0 no effect, 10 complete control
[28] = Postemergence, Rate 250 g/ha, scale 0 to 10
[29] = Preemergence, Rate 250 g/ha, scale 0 to 10, 0 is no effect, 10 is complete control
[30] = Preemergence, Rate 500 g/ha, scale 0 to 10, 0 is no effect, 10 is complete control
[31] = Rate 125 g/ha, Postemergence, scale 0 to 10, 0 is no effect, 10 is complete control

SMILES: C#CC(C)n1c(=O)on(C(=O)N(c2ccccc2)C(C)C)c1=O (centres unmarked) [Compound 609]
- Plant response rating, Wheat [1, 5]: 0
- Plant response rating, Wheat [1, 6]: 0
- Wheat plant response rating [1, 7]: 2
- Plant response rating, Wheat [1, 8]: 6
- Wheat plant response rating [1, 9]: 0
- Wheat plant response rating [1, 10]: 0
- Plant response rating, Wheat [1, 11]: 6
- Plant response rating, Bedstraw [2, 5]: 0
- Plant response rating, Bedstraw [2, 6]: 0
- Bedstraw plant response rating [2, 9]: 4
- Bedstraw plant response rating [2, 10]: 8
- Bedstraw plant response rating (0 to 10 scale) ([2]; Preemergence, Rate 250 g/ha): 8
- Plant response rating, Velvetleaf [3, 5]: 3
- Plant response rating, Velvetleaf [3, 6]: 3
- Velvetleaf plant response rating [3, 7]: 7
- Plant response rating, Velvetleaf [3, 8]: 8
- Velvetleaf plant response rating [3, 9]: 7
- Velvetleaf plant response rating [3, 10]: 8
- Plant response rating, Velvetleaf [3, 11]: 9
- Plant response rating, Blackgrass [4, 5]: 5
- Plant response rating, Blackgrass [4, 6]: 8
- Blackgrass plant response rating [4, 7]: 8
- Plant response rating, Blackgrass [4, 8]: 8
- Blackgrass plant response rating [4, 9]: 7
- Blackgrass plant response rating [4, 10]: 8
- Blackgrass plant response rating (0 to 10 scale) ([4]; Preemergence, Rate 250 g/ha): 9
- Blackgrass plant response rating [4, 11]: 10

SMILES: CC(C)N(C(=O)n1oc(=O)n(Cc2ccccc2-c2ccccc2)c1=O)c1ccc(F)cc1 [Compound 313]
- Wheat plant response rating [1, 12]: 0
- Wheat plant response rating (0 to 10 scale) ([1]; Preemergence, Rate 125 g/ha): 0
- Wheat plant response rating [1, 13]: 0
- Wheat plant response rating [1, 11]: 0
- Wheat plant response rating [1, 14]: 0
- Wheat plant response rating [1, 15]: 0
- Plant response rating, Wheat [1, 16]: 0
- Bedstraw plant response rating [2, 12]: 0
- Bedstraw plant response rating [2, 13]: 0
- Bedstraw plant response rating [2, 11]: 0
- Bedstraw plant response rating [2, 14]: 5
- Bedstraw plant response rating [2, 15]: 7
- Plant response rating, Bedstraw [2, 16]: 7
- Velvetleaf plant response rating [3, 12]: 0
- Velvetleaf plant response rating (0 to 10 scale) ([3]; Preemergence, Rate 125 g/ha): 0
- Velvetleaf plant response rating [3, 13]: 0
- Velvetleaf plant response rating [3, 11]: 0
- Velvetleaf plant response rating [3, 14]: 0
- Velvetleaf plant response rating [3, 15]: 0
- Plant response rating, Velvetleaf [3, 16]: 0
- Blackgrass plant response rating [4, 12]: 0
- Blackgrass plant response rating (0 to 10 scale) ([4]; Preemergence, Rate 125 g/ha): 0
- Blackgrass plant response rating [4, 13]: 0
- Blackgrass plant response rating [4, 11]: 0
- Blackgrass plant response rating [4, 14]: 0
- Blackgrass plant response rating [4, 15]: 0
- Plant response rating, Blackgrass [4, 16]: 0
- Blackgrass plant response rating [4, 17]: 0

SMILES: CC(C)N(C(=O)n1oc(=O)n(N2C(C)CCCC2C)c1=O)c1ccc(F)cc1F (centres unmarked) [Compound 383]
- Plant response rating, Wheat [1, 18]: 0
- Plant response rating, Wheat [1, 19]: 0
- Plant response rating, Wheat [1, 9]: 0
- Wheat plant response rating (0 to 10 scale) ([1]; Preemergence, Rate 125 g/ha): 0
- Wheat plant response rating [1, 13]: 0
- Wheat plant response rating [1, 11]: 0
- Wheat plant response rating [1, 20]: 0
- Plant response rating, Wheat [1, 17]: 0
- Plant response rating, Bedstraw [2, 18]: 0
- Plant response rating, Bedstraw [2, 19]: 0
- Plant response rating, Bedstraw [2, 9]: 0
- Plant response rating, Bedstraw [2, 17]: 0
- Plant response rating, Velvetleaf [3, 18]: 0
- Plant response rating, Velvetleaf [3, 19]: 0
- Plant response rating, Velvetleaf [3, 9]: 0
- Velvetleaf plant response rating (0 to 10 scale) ([3]; Preemergence, Rate 125 g/ha): 0
- Velvetleaf plant response rating [3, 13]: 0
- Velvetleaf plant response rating [3, 11]: 0
- Velvetleaf plant response rating [3, 20]: 0
- Plant response rating, Velvetleaf [3, 17]: 0
- Plant response rating, Blackgrass [4, 18]: 0
- Plant response rating, Blackgrass [4, 19]: 2
- Plant response rating, Blackgrass [4, 9]: 0
- Blackgrass plant response rating (0 to 10 scale) ([4]; Preemergence, Rate 125 g/ha): 0
- Blackgrass plant response rating [4, 13]: 2
- Blackgrass plant response rating [4, 11]: 7
- Blackgrass plant response rating [4, 20]: 0
- Plant response rating, Blackgrass [4, 17]: 8

SMILES: CC(C)N(C(=O)n1oc(=O)n(CCC2OCCCO2)c1=O)c1ccc(Cl)cc1 [Compound 532]
- Wheat plant response rating [1, 21]: 0
- Wheat plant response rating [1, 18]: 0
- Plant response rating, Wheat [1, 22]: 0
- Plant response rating, Wheat [1, 12]: 0
- Wheat plant response rating [1, 23]: 0
- Wheat plant response rating (0 to 10 scale) ([1]; Preemergence, Rate 250 g/ha): 0
- Wheat plant response rating [1, 11]: 0
- Plant response rating, Wheat [1, 16]: 0
- Bedstraw plant response rating [2, 21]: 0
- Bedstraw plant response rating [2, 18]: 0
- Plant response rating, Bedstraw [2, 22]: 0
- Plant response rating, Bedstraw [2, 12]: 0
- Bedstraw plant response rating [2, 11]: 0
- Plant response rating, Bedstraw [2, 16]: 0
- Velvetleaf plant response rating [3, 21]: 0
- Velvetleaf plant response rating [3, 18]: 0
- Plant response rating, Velvetleaf [3, 22]: 2
- Plant response rating, Velvetleaf [3, 12]: 0
- Velvetleaf plant response rating [3, 23]: 0
- Velvetleaf plant response rating (0 to 10 scale) ([3]; Preemergence, Rate 250 g/ha): 0
- Velvetleaf plant response rating [3, 11]: 4
- Plant response rating, Velvetleaf [3, 16]: 2
- Blackgrass plant response rating [4, 21]: 0
- Blackgrass plant response rating [4, 18]: 0
- Plant response rating, Blackgrass [4, 22]: 0
- Plant response rating, Blackgrass [4, 12]: 0
- Blackgrass plant response rating [4, 23]: 0
- Blackgrass plant response rating (0 to 10 scale) ([4]; Preemergence, Rate 250 g/ha): 0
- Blackgrass plant response rating [4, 11]: 0
- Plant response rating, Blackgrass [4, 16]: 0

SMILES: COc1cccc(C)c1-n1c(=O)on(C(=O)N(c2ccc(F)cc2)C(C)C)c1=O [Compound 62]
- Wheat plant response rating [1, 5]: 0
- Wheat plant response rating [1, 24]: 0
- Wheat plant response rating [1, 9]: 0
- Plant response rating, Wheat [1, 25]: 0
- Plant response rating, Wheat [1, 13]: 0
- Wheat plant response rating [1, 26]: 0
- Wheat plant response rating [1, 27]: 0
- Wheat plant response rating [1, 17]: 0
- Bedstraw plant response rating [2, 5]: 0
- Bedstraw plant response rating [2, 24]: 2
- Bedstraw plant response rating [2, 9]: 0
- Plant response rating, Bedstraw [2, 25]: 0
- Plant response rating, Bedstraw [2, 13]: 0
- Bedstraw plant response rating [2, 26]: 4
- Bedstraw plant response rating [2, 27]: 0
- Velvetleaf plant response rating [3, 5]: 0
- Velvetleaf plant response rating [3, 24]: 2
- Velvetleaf plant response rating [3, 9]: 0
- Plant response rating, Velvetleaf [3, 25]: 0
- Plant response rating, Velvetleaf [3, 13]: 0
- Velvetleaf plant response rating [3, 26]: 0
- Velvetleaf plant response rating [3, 27]: 0
- Velvetleaf plant response rating [3, 17]: 7
- Blackgrass plant response rating [4, 5]: 0
- Blackgrass plant response rating [4, 24]: 0
- Blackgrass plant response rating [4, 9]: 0
- Plant response rating, Blackgrass [4, 25]: 0
- Plant response rating, Blackgrass [4, 13]: 2
- Blackgrass plant response rating [4, 26]: 4
- Blackgrass plant response rating [4, 27]: 0
- Blackgrass plant response rating [4, 17]: 2

SMILES: CC[Si](C)(C)Cn1c(=O)on(C(=O)N(c2ccc(Cl)cc2)C(C)C)c1=O [Compound 460]
- Wheat plant response rating [1, 28]: 0
- Plant response rating, Wheat [1, 12]: 0
- Plant response rating, Wheat [1, 10]: 0
- Wheat plant response rating [1, 29]: 0
- Wheat plant response rating [1, 30]: 0
- Wheat plant response rating [1, 14]: 0
- Wheat plant response rating [1, 31]: 0
- Bedstraw plant response rating [2, 8]: 8
- Plant response rating, Bedstraw [2, 12]: 0
- Plant response rating, Bedstraw [2, 10]: 0
- Velvetleaf plant response rating [3, 28]: 0
- Plant response rating, Velvetleaf [3, 12]: 0
- Plant response rating, Velvetleaf [3, 10]: 0
- Velvetleaf plant response rating [3, 29]: 0
- Velvetleaf plant response rating [3, 30]: 0
- Velvetleaf plant response rating [3, 14]: 0
- Velvetleaf plant response rating [3, 31]: 0
- Blackgrass plant response rating [4, 8]: 8
- Plant response rating, Blackgrass [4, 12]: 0
- Plant response rating, Blackgrass [4, 10]: 0
- Blackgrass plant response rating [4, 29]: 0
- Blackgrass plant response rating [4, 30]: 3
- Blackgrass plant response rating [4, 14]: 2
